Laboratory results reported in ChEMBL document CHEMBL5370585, “Exploration and Biological Evaluation of 1,3-Diamino-7H-pyrrol[3,2-f]quinazoline Derivatives as Dihydrofolate Reductase Inhibitors” (J Med Chem, 2023).
Converted amounts (≈) assume the structure as drawn.

Assays:
MCF7 = assay: Cytotoxicity against human MCF7 cells measured after 72 hrs by MTT assay; type: functional, cell-based; conditions: MCF7, 72 h
Enterococcus faecalis [1] = assay: Antibacterial activity against Enterococcus faecalis ATCC 29212 incubated for 16 to 18 hrs by CLSI based broth dilution method; type: functional; conditions: time 16-18 hrs
[2] = system: Staphylococcus epidermidis; assay: Antibacterial activity against Staphylococcus epidermidis ATCC 12228 incubated for 16 to 18 hrs by CLSI based broth dilution method; type: functional; conditions: time 16-18 hrs
Escherichia coli [3] = assay: Antibacterial activity against Escherichia coli ATCC 25922 incubated for 16 to 18 hrs by CLSI based broth dilution method; type: functional; conditions: time 16-18 hrs
Staphylococcus aureus [4] = assay: Drug resistance against methicillin-resistant Staphylococcus aureus ATCC 43300 assessed as fold increase in MIC measured after 10 passaging for 24 hrs; type: functional
HepG2 = assay: Cytotoxicity against human HepG2 cells measured after 72 hrs by MTT assay; type: functional, cell-based; conditions: HepG2, 72 h
HCT-116 = assay: Cytotoxicity against human HCT-116 cells measured after 72 hrs by MTT assay; type: functional, cell-based; conditions: HCT-116, 72 h
Staphylococcus aureus [5] = assay: Antibacterial activity against Staphylococcus aureus ATCC 29213 incubated for 16 to 18 hrs by CLSI based broth dilution method; type: functional; conditions: time 16-18 hrs
[6] = biological target: T1, Dihydrofolate reductase (Homo sapiens) (UniProt P00374); assay: Inhibition of human DHFR at 1 uM incubated for 10 mins in presence of NADPH by colorimetry based analysis relative to control
T1 sequence (whole entry): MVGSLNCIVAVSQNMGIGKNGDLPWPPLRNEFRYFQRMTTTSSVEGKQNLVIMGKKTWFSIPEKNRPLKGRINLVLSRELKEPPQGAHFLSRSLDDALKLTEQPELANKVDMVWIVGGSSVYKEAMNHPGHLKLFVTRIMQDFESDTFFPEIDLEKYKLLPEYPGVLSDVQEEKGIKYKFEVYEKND

HGC-27 = assay: Cytotoxicity against human HGC-27 cells measured after 72 hrs by MTT assay; type: functional, cell-based; conditions: HGC-27, 72 h
Staphylococcus aureus [7] = assay: Antibacterial activity against methicillin-resistant Staphylococcus aureus ATCC 43300 incubated for 16 to 18 hrs by CLSI based broth dilution method; type: functional; conditions: time 16-18 hrs
[8] = Toxicity in ICR mouse assessed as median lethal dose administered as single IP dose measured upto 8 days; conditions: in vivo, time < 8 day
Acinetobacter baumannii [9] = assay: Antibacterial activity against Acinetobacter baumannii ATCC 19606 incubated for 16 to 18 hrs by CLSI based broth dilution method; type: functional; conditions: time 16-18 hrs
Staphylococcus aureus [10] = assay: Antibacterial activity against methicillin-resistant Staphylococcus aureus ATCC 33591 incubated for 16 to 18 hrs by CLSI based broth dilution method; type: functional; conditions: time 16-18 hrs
Enterococcus = assay: Antibacterial activity against Vancomycin-resistant Enterococcus ATCC 51575 incubated for 16 to 18 hrs by CLSI based broth dilution method; type: functional; conditions: time 16-18 hrs
Acinetobacter baumannii [11] = assay: Antibacterial activity against Acinetobacter baumannii 20-2 incubated for 16 to 18 hrs by CLSI based broth dilution method; type: functional; conditions: time 16-18 hrs
Escherichia coli [12] = assay: Antibacterial activity against Escherichia coli ECO 15-1 incubated for 16 to 18 hrs by CLSI based broth dilution method; type: functional; conditions: time 16-18 hrs
Enterococcus faecalis [13] = assay: Antibacterial activity against Enterococcus faecalis EFA19-2 incubated for 16 to 18 hrs by CLSI based broth dilution method; type: functional; conditions: time 16-18 hrs
Staphylococcus aureus [14] = assay: Antibacterial activity against vancomycin intermediate Staphylococcus aureus ATCC 700699 incubated for 16 to 18 hrs by CLSI based broth dilution method; type: functional; conditions: time 16-18 hrs
Escherichia coli [15] = assay: Antibacterial activity against Escherichia coli ATCC BAA-2340 incubated for 16 to 18 hrs by CLSI based broth dilution method; type: functional; conditions: time 16-18 hrs
Staphylococcus aureus [16] = assay: Antibacterial activity against methicillin-sensitive Staphylococcus aureus ATCC 29213 incubated for 16 to 18 hrs by CLSI based broth dilution method; type: functional; conditions: time 16-18 hrs
Staphylococcus aureus [17] = assay: Antibacterial activity against methicillin-sensitive Staphylococcus aureus ATCC 25923 incubated for 16 to 18 hrs by CLSI based broth dilution method; type: functional; conditions: time 16-18 hrs
Enterococcus faecalis [18] = assay: Antibacterial activity against Enterococcus faecalis EFA19-1 incubated for 16 to 18 hrs by CLSI based broth dilution method; type: functional; conditions: time 16-18 hrs
Staphylococcus aureus [19] = assay: Antibacterial activity against methicillin-sensitive Staphylococcus aureus 15-2 incubated for 16 to 18 hrs by CLSI based broth dilution method; type: functional; conditions: time 16-18 hrs
Staphylococcus aureus [20] = assay: Antibacterial activity against methicillin-sensitive Staphylococcus aureus 15-1 incubated for 16 to 18 hrs by CLSI based broth dilution method; type: functional; conditions: time 16-18 hrs
Acinetobacter baumannii [21] = assay: Antibacterial activity against Acinetobacter baumannii ATCC 19606 assessed as reduction in microbial growth incubated for 16 to 18 hrs by CLSI based broth dilution method; type: functional; conditions: time 16-18 hrs
Staphylococcus aureus [22] = assay: Antibacterial activity against vancomycin intermediate Staphylococcus aureus ATCC 700788 incubated for 16 to 18 hrs by CLSI based broth dilution method; type: functional; conditions: time 16-18 hrs

For `Nc1nc(N)c2c(ccc3c2ccn3Cc2ccc(-c3ccccc3)cc2)n1`, the IC50 (MCF7) was 580 nM, the MIC (Enterococcus faecalis [1]) was 0.25 µg/mL (≈ 0.684 µM) and the MIC [2] was no more than 0.004 µg/mL. For the same compound, the MIC (Escherichia coli [3]) was greater than 128 µg/mL, the “fold change (FC)” value (Staphylococcus aureus [4]) was 8 and the IC50 (HepG2) was 530 nM. For the same compound, the IC50 (HCT-116) was 32 nM, the MIC (Staphylococcus aureus [5]) was 1 µg/mL (≈ 2.74 µM) and the inhibition [6] was 54.8%. The IC50 (HGC-27) was 85 nM, the MIC (Staphylococcus aureus [7]) was 0.5 µg/mL (≈ 1.37 µM) and the LD50 at 192 h [8] was 154 mg/kg. For the same compound, the MIC (Acinetobacter baumannii [9]) was greater than 32 µg/mL.
`C[C@H]1COc2c(N3CCN(C)CC3)c(F)cc3c(=O)c(C(=O)O)cn1c23` [LEVOFLOXACIN ANHYDROUS] gave an MIC (Staphylococcus aureus [10]) of 0.25 µg/mL (≈ 0.692 µM), an MIC (Enterococcus) of 1 µg/mL (≈ 2.77 µM) and an MIC (Acinetobacter baumannii [11]) of no more than 0.03 µg/mL. For the same compound, the MIC (Escherichia coli [3]) was no more than 0.03 µg/mL, the MIC (Escherichia coli [12]) was 8 µg/mL (≈ 22.1 µM) and the MIC (Enterococcus faecalis [13]) was 2 µg/mL (≈ 5.53 µM). The MIC (Staphylococcus aureus [14]) was 64 µg/mL (≈ 177 µM), the MIC (Staphylococcus aureus [7]) was 0.25 µg/mL (≈ 0.692 µM) and the MIC (Escherichia coli [15]) was 32 µg/mL (≈ 88.6 µM). It also gave an MIC (Staphylococcus aureus [16]) of 0.25 µg/mL (≈ 0.692 µM), an MIC (Staphylococcus aureus [17]) of 0.25 µg/mL (≈ 0.692 µM) and an MIC (Enterococcus faecalis [18]) of 1 µg/mL (≈ 2.77 µM). The MIC (Staphylococcus aureus [19]) was 64 µg/mL (≈ 177 µM), the MIC (Staphylococcus aureus [20]) was 16 µg/mL (≈ 44.3 µM) and the MIC (Acinetobacter baumannii [21]) was 0.25 µg/mL. It also gave an MIC (Staphylococcus aureus [22]) of 32 µg/mL (≈ 88.6 µM).
